Test results from PubChem BioAssay AID2060612 (Molecular Pharmacology Branch, DTP, NCI, 2025).

System: 565232-114-T-J1-PDC complex spheroid viability
Assay: Anticancer human tumor 565232-114-T-J1-PDC patient-derived bladder carcinoma cell line growth inhibition [CLK]
Settings: for IC50: curve of first compound; for viability, T/C: stronger effect = lower value; active = viability on the fitted dose curve at most 10% of control; inactive = the rest
Outline: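 Multi-cell-type spheroids combined patient-derived tumor cells with HUVEC endothelial cells and human mesenchymal stem cells. Paired agents were dosed in half-log steps down from about clinical Cmax, or from 10 microM where Cmax was unknown.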

[1] = second compound 0.0316 µM, first compound 0.0316 µM
[2] = second compound 0.0316 µM, first compound 0.1 µM
[3] = second compound 0.0316 µM, first compound 0.316 µM
[4] = second compound 0.0316 µM, first compound 1 µM
[5] = second compound 0.0316 µM, first compound 3.16 µM
[6] = second compound 0.0316 µM, first compound 10 µM
[7] = second compound 0.1 µM, first compound 0.0316 µM
[8] = second compound 0.1 µM, first compound 0.1 µM
[9] = second compound 0.1 µM, first compound 0.316 µM
[10] = second compound 0.1 µM, first compound 1 µM
[11] = second compound 0.1 µM, first compound 3.16 µM
[12] = second compound 0.1 µM, first compound 10 µM
[13] = second compound 0.316 µM, first compound 0.0316 µM
[14] = second compound 0.316 µM, first compound 0.1 µM
[15] = second compound 0.316 µM, first compound 0.316 µM
[16] = second compound 0.316 µM, first compound 1 µM
[17] = second compound 0.316 µM, first compound 3.16 µM
[18] = second compound 0.316 µM, first compound 10 µM
[19] = second compound 1 µM, first compound 0.0316 µM
[20] = second compound 1 µM, first compound 0.1 µM
[21] = second compound 1 µM, first compound 0.316 µM
[22] = second compound 1 µM, first compound 1 µM
[23] = second compound 1 µM, first compound 3.16 µM
[24] = second compound 1 µM, first compound 10 µM
[25] = second compound 3.16 µM, first compound 0.0316 µM
[26] = second compound 3.16 µM, first compound 0.1 µM
[27] = second compound 3.16 µM, first compound 0.316 µM
[28] = second compound 3.16 µM, first compound 1 µM
[29] = second compound 3.16 µM, first compound 3.16 µM
[30] = second compound 3.16 µM, first compound 10 µM
[31] = second compound 10 µM, first compound 0.0316 µM
[32] = second compound 10 µM, first compound 0.1 µM
[33] = second compound 10 µM, first compound 0.316 µM
[34] = second compound 10 µM, first compound 1 µM
[35] = second compound 10 µM, first compound 3.16 µM
[36] = second compound 10 µM, first compound 10 µM
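Also: spheroids exposed to compounds for 7 days before readout.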
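For viability, T/C in this document: 100% = DMSO vehicle wells with luminescence normalized to vehicle control.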

CC(=O)O[C@H]1C(=O)[C@@]2(C)[C@H]([C@H](OC(=O)c3ccccc3)[C@]3(O)C[C@H](OC(=O)[C@H](O)[C@@H](NC(=O)c4ccccc4)c4ccccc4)C(C)=C1C3(C)C)[C@]1(OC(C)=O)CO[C@@H]1C[C@@H]2O + CN1CCN(c2cc(C(=O)Nc3cc4cc(-c5cnn(C)c5)ccc4cn3)ccn2)CC1
inactive: viability, T/C [1] 33.2% | viability, T/C [2] 17.3% | viability, T/C [3] 18.3% | viability, T/C [4] 16.5% | viability, T/C [5] 21.1% | viability, T/C [6] 20.4% | viability, T/C [7] 25.3% | viability, T/C [8] 23.1% | viability, T/C [9] 20.2% | viability, T/C [10] 16.3% | viability, T/C [11] 17% | viability, T/C [12] 22.6% | viability, T/C [13] 7.34% | viability, T/C [14] 11.6% | viability, T/C [15] 13.5% | viability, T/C [16] 12.6% | viability, T/C [17] 13.7% | viability, T/C [18] 14.9%
active: viability, T/C [19] 1.4% | viability, T/C [20] 0.18% | viability, T/C [21] 0.18% | viability, T/C [22] 0.13% | viability, T/C [23] 0.16% | viability, T/C [24] 0.95% | viability, T/C [25] 0.15% | viability, T/C [26] 0.19% | viability, T/C [27] 0.17% | viability, T/C [28] 1.81% | viability, T/C [29] 0.95% | viability, T/C [30] 3.05% | viability, T/C [31] 0.18% | viability, T/C [32] 0.55% | viability, T/C [33] 2.34% | viability, T/C [34] 0.22% | viability, T/C [35] 1.4% | viability, T/C [36] 0.16%
< 31.6 nM: IC50 (second compound 0.0316 µM) | IC50 (second compound 0.1 µM) | IC50 (second compound 0.316 µM) | IC50 (second compound 1 µM) | IC50 (second compound 3.16 µM) | IC50 (second compound 10 µM)

CCc1c2c(nc3ccc(O)cc13)-c1cc3c(c(=O)n1C2)COC(=O)[C@]3(O)CC + CN1CCN(c2cc(C(=O)Nc3cc4cc(-c5cnn(C)c5)ccc4cn3)ccn2)CC1
36 nM: IC50 (second compound 0.0316 µM)
active: viability, T/C [4] 5.15% | viability, T/C [10] 3.53% | viability, T/C [14] 5.02% | viability, T/C [15] 1.56% | viability, T/C [16] 2.33% | viability, T/C (second compound 1 µM, first compound 0.00316 µM) 0.86% | viability, T/C (second compound 1 µM, first compound 0.01 µM) 0.17% | viability, T/C [19] 1.6% | viability, T/C [20] 0.24% | viability, T/C [21] 0.5% | viability, T/C [22] 1.14% | viability, T/C (second compound 3.16 µM, first compound 0.00316 µM) 0.22% | viability, T/C (second compound 3.16 µM, first compound 0.01 µM) 1% | viability, T/C [25] 0.2% | viability, T/C [26] 0.12% | viability, T/C [27] 1.33% | viability, T/C [28] 2.74% | viability, T/C (second compound 10 µM, first compound 0.00316 µM) 0.22% | viability, T/C (second compound 10 µM, first compound 0.01 µM) 1.67% | viability, T/C [31] 0.18% | viability, T/C [32] 0.17% | viability, T/C [33] 1.26% | viability, T/C [34] 0.19%
< 3.16 nM: IC50 (second compound 0.316 µM) | IC50 (second compound 1 µM) | IC50 (second compound 3.16 µM) | IC50 (second compound 10 µM)
13.9 nM: IC50 (second compound 0.1 µM)
inactive: viability, T/C (second compound 0.0316 µM, first compound 0.00316 µM) 96.6% | viability, T/C (second compound 0.0316 µM, first compound 0.01 µM) 61.8% | viability, T/C [1] 54.6% | viability, T/C [2] 38.5% | viability, T/C [3] 16.3% | viability, T/C (second compound 0.1 µM, first compound 0.00316 µM) 113% | viability, T/C (second compound 0.1 µM, first compound 0.01 µM) 48.3% | viability, T/C [7] 39.1% | viability, T/C [8] 21.1% | viability, T/C [9] 7.93% | viability, T/C (second compound 0.316 µM, first compound 0.00316 µM) 18.2% | viability, T/C (second compound 0.316 µM, first compound 0.01 µM) 17.8% | viability, T/C [13] 13.5%

COc1cccc2c1C(=O)c1c(O)c3c(c(O)c1C2=O)CC(O)(C(=O)CO)CC3OC1CC(N)C(O)C(C)O1 (stereo unspecified) + CN1CCN(c2cc(C(=O)Nc3cc4cc(-c5cnn(C)c5)ccc4cn3)ccn2)CC1
inactive: viability, T/C [1] 105% | viability, T/C [2] 109% | viability, T/C [3] 48.1% | viability, T/C [7] 115% | viability, T/C [8] 89.1% | viability, T/C [9] 40.7% | viability, T/C [13] 18.3% | viability, T/C [14] 13.6%
< 31.6 nM: IC50 (second compound 0.316 µM) | IC50 (second compound 1 µM) | IC50 (second compound 3.16 µM) | IC50 (second compound 10 µM)
active: viability, T/C [4] 9.14% | viability, T/C [5] 0.19% | viability, T/C [6] 0.25% | viability, T/C [10] 5.59% | viability, T/C [11] 0.19% | viability, T/C [12] 0.21% | viability, T/C [15] 6.17% | viability, T/C [16] 0.17% | viability, T/C [17] 1.79% | viability, T/C [18] 0.82% | viability, T/C [19] 0.13% | viability, T/C [20] 0.18% | viability, T/C [21] 0.16% | viability, T/C [22] 0.17% | viability, T/C [23] 3.15% | viability, T/C [24] 0.74% | viability, T/C [25] 1.46% | viability, T/C [26] 0.16% | viability, T/C [27] 0.94% | viability, T/C [28] 2.29% | viability, T/C [29] 2.17% | viability, T/C [30] 1.43% | viability, T/C [31] 0.09% | viability, T/C [32] 0.11% | viability, T/C [33] 0.22% | viability, T/C [34] 2.57% | viability, T/C [35] 0.16% | viability, T/C [36] 1.03%
308 nM: IC50 (second compound 0.0316 µM)
247 nM: IC50 (second compound 0.1 µM)
